For the assay, the target named is T1, ΔF508-CFTR (Homo sapiens, UniProt P13569, DEL508-508).
T1 construct: expressed in transfected cells; host or cells: Fisher rat […] (FRT) cells expressing ΔF508-CFTR (Ussing chamber); NIH3T3 cells stably expressing ΔF508-CFTR (whole-cell recording)
Briefly: Assays for detecting and measuring ΔF508-CFTR potentiation properties of compounds (membrane potential optical / Ussing chamber / whole-cell recording). Type of assay: cell-based. As to conditions: for Emax: relative efficacy, efficacy of putative ΔF508-CFTR potentiators compared to known potentiator genistein; for EC50: ΔF508-CFTR potentiation, the specific assay format behind Table 3 is not stated. The text has this:
Assays for Detecting and Measuring ΔF508-CFTR Potentiation Properties of Compounds
Membrane Potential Optical Methods for Assaying ΔF508-CFTR Modulation Properties of Compounds
The optical membrane potential assay utilized voltage-sensitive FRET sensors described by Gonzalez and Tsien (See Gonzalez, J. E. and R. Y. Tsien (1995) “Voltage sensing by fluorescence resonance energy transfer in single cells” Biophys J 69(4): 1272-80, and Gonzalez, J. E. and R. Y. Tsien (1997) “Improved indicators of cell membrane potential that use fluorescence resonance energy transfer” Chem Biol 4(4): 269-77) in combination with instrumentation for measuring fluorescence changes such as the Voltage/Ion Probe Reader (VIPR) (See Gonzalez, J. E., K. Oades, et al. (1999) “Cell-based assays and instrumentation for screening ion-channel targets” Drug Discov Today 4(9): 431-439).
These voltage sensitive assays are based on the change in fluorescence resonant energy transfer (FRET) between the membrane-soluble, voltage-sensitive dye, DiSBAC2(3), and a fluorescent phospholipid, CC2-DMPE, which is attached to the outer leaflet of the plasma membrane and acts as a FRET donor. Changes in membrane potential (Vm) cause the negatively charged DiSBAC2(3) to redistribute across the plasma membrane and the amount of energy transfer from CC2-DMPE changes accordingly. The changes in fluorescence emission were monitored using VIPR™ II, which is an integrated liquid handler and fluorescent detector designed to conduct cell-based screens in 96- or 384-well microtiter plates.
Identification of Potentiator Compounds
Typical protocol utilized a basolateral to apical membrane Cl^− concentration gradient. To set up this gradient, normal ringers was used on the basolateral membrane and was permeabilized with nystatin (360 μg/m), whereas apical NaCl was replaced by equimolar sodium gluconate (titrated to pH 7.4 with NaOH) to give a large Cl^− concentration gradient across the epithelium. All experiments were performed 30 min after nystatin permeabilization. Forskolin (10 μM) and all test compounds were added to both sides of the cell culture inserts. The efficacy of the putative ΔF508-CFTR potentiators was compared to that of the known potentiator, genistein.
Solutions • Basolateral solution (in mM): NaCl (135), CaCl2 (1.2), MgCl2 (1.2), K2HPO4 (2.4), KHPO4 (0.6), N-2-hydroxyethylpiperazine-N′-2-ethanesulfonic acid (HEPES) (10), and dextrose (10). The solution was titrated to pH 7.4 with NaOH. • Apical solution (in mM): Same as basolateral solution with NaCl replaced with Na Gluconate (135).
Fisher rat […] (FRT) cells expressing ΔF508-CFTR (FRTΔ^F508-CFTR) were used for Ussing chamber experiments for the putative ΔF508-CFTR modulators identified from our optical assays. The cells were cultured on Costar Snapwell cell culture inserts and cultured for five days at 37° C. and 5% CO2 in Coon's modified Ham's F-12 medium supplemented with 5% fetal calf serum, 100 U/ml penicillin, and 100 μg/m streptomycin. Prior to use for characterizing the potentiator activity of compounds, the cells were incubated at 27° C. for 16-48 hrs to correct for the ΔF508-CFTR. To determine the activity of corrections compounds, the cells were incubated at 27° C. or 37° C. with and without the compounds for 24 hours.
The macroscopic ΔF508-CFTR current (IΔF508) in temperature- and test compound-corrected NIH3T3 cells stably expressing ΔF508-CFTR were monitored using the perforated-patch, whole-cell recording. Briefly, voltage-clamp recordings of IΔF508 were performed at room temperature using an Axopatch 200B patch-clamp amplifier (Axon Instruments Inc., Foster City, Calif.). All recordings were acquired at a sampling frequency of 10 kHz and low-pass filtered at 1 kHz. […] Under these recording conditions, the calculated reversal potential for Cl^− (ECl) at room temperature was −28 mV. […]

This passage reports Emax and EC50 results from patent US9399648B2, “Isothiazolopyridinones useful for the treatment of (inter alia) cystic fibrosis” (Vertex Pharmaceuticals Incorporated, priority 2007, dated 2016).

T1 sequence (P13569 with tags, fused parts or gaps DEL508-508): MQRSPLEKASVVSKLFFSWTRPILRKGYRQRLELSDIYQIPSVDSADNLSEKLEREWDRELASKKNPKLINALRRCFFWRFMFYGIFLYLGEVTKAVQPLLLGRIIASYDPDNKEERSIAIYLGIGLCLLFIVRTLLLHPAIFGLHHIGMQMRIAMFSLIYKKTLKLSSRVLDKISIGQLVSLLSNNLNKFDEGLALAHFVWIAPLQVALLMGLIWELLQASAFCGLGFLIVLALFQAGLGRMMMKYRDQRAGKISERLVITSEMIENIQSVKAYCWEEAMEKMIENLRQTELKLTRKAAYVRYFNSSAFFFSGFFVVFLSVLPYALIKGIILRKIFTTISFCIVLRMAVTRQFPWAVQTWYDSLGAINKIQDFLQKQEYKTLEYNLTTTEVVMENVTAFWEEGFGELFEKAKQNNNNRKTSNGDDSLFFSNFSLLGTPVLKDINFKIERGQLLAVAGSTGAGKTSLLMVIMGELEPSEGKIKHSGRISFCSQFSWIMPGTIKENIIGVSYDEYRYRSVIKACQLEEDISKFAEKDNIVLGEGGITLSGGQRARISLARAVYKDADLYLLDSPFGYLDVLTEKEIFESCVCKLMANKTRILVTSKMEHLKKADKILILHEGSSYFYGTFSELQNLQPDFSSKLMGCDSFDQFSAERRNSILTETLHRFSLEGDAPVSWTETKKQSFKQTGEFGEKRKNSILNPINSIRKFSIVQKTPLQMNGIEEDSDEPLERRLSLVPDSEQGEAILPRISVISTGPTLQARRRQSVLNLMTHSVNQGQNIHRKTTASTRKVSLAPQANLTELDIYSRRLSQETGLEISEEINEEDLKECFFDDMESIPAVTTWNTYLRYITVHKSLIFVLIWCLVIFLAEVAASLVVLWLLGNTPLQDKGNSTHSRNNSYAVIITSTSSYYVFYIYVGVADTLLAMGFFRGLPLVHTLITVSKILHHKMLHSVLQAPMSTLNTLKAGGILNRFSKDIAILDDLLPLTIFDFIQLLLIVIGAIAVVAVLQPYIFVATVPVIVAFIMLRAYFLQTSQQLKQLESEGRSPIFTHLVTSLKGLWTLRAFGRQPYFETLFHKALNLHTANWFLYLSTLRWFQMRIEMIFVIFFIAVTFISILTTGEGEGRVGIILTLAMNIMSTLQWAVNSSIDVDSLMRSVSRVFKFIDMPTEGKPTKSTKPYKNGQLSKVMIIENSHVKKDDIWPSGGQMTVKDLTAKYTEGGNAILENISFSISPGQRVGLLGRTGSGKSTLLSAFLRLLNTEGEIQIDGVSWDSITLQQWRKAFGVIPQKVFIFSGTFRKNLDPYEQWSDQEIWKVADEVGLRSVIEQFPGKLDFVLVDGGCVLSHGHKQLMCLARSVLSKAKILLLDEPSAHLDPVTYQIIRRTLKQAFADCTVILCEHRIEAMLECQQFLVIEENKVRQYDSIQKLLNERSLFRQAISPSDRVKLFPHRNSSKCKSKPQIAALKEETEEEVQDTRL

For the molecule `Cc1nsc2[nH]cc(C(=O)Nc3ccc4c(C(F)(F)F)c[nH]c4c3)c(=O)c12` [Compound 1], the Emax (commonly the maximal effect, on the per cent scale that the assay sets) lay in the range of 25 to 100% and the half-maximal effective concentration (EC50) (as a rule, the concentration needed to bring the measured effect to its halfway point) was less than 10 µM.

For the molecule `Cc1nsc2[nH]cc(C(=O)Nc3ccc4c(C(C)(C)C)c[nH]c4c3)c(=O)c12` [Compound 2, N-(3-tert-butyl-1H-indol-6-yl)-3-methyl-4-oxo-4,7-dihydroisothiazolo[5,4-b]-pyridine-5-carboxamide], the Emax fell in the range of 25 to 100% and the EC50 is less than 10 µM.

Take `Cc1nsc2[nH]cc(C(=O)Nc3cc(O)c(C(C)(C)C)cc3C(C)(C)C)c(=O)c12` [Compound 3]: the maximum response (Emax) lay in the range of 25 to 100% and the EC50 was less than 10 µM.

As for `Cc1nsc2[nH]cc(C(=O)Nc3ccc(N4CCC[C@@H]4C)cc3C(F)(F)F)c(=O)c12` [Compound 4], the Emax was 25 to 100% and the EC50 is less than 10 µM.

In the case of `Cc1nsc2[nH]cc(C(=O)Nc3cc(O)c(C4(C)CCCCC4)cc3F)c(=O)c12` [Compound 5], the Emax lay within 25 to 100% and the 50% effective concentration (EC50) is less than 10 µM.

In the case of `Cc1nsc2[nH]cc(C(=O)Nc3ccc(C(F)(F)F)c(O)c3)c(=O)c12` [Compound 6], the Emax lay within 25 to 100% and the EC50 is less than 10 µM.

`Cc1nsc2[nH]cc(C(=O)Nc3ccc(N4CCC(F)(F)C4)cc3C(F)(F)F)c(=O)c12` [Compound 7]: the Emax lay within 25 to 100% and the EC50 is less than 10 µM.

Turning to `Cc1nsc2[nH]cc(C(=O)Nc3ccc(N4CCC(C)(C)C4)cc3C(F)(F)F)c(=O)c12` [Compound 8], the maximal effect (Emax) was 25 to 100% and the EC50 is less than 10 µM.

For the molecule `Cc1nsc2[nH]cc(C(=O)Nc3cc4[nH]ccc4cc3C(F)(F)F)c(=O)c12` [Compound 9], the maximal effect (Emax) was in the range of 25 to 100% and the concentration giving a half-maximal response (EC50) is less than 10 µM.

`Cc1nsc2[nH]cc(C(=O)Nc3ccc(N4CC[C@H](F)C4)cc3C(F)(F)F)c(=O)c12` [Compound 10]: the maximum response (Emax) is 25 to 100% and the 50% effective concentration (EC50) is less than 10 µM.

Turning to `Cc1nsc2[nH]cc(C(=O)Nc3ccc(N4[C@H](C)CC[C@H]4C)cc3C(F)(F)F)c(=O)c12` [Compound 11], the maximal response (Emax) was 25 to 100% and the concentration giving a half-maximal response (EC50) is less than 10 µM.

Consider `Cc1nsc2[nH]cc(C(=O)Nc3cc(O)c(C4CCCC4)cc3C(F)(F)F)c(=O)c12` [Compound 12], for which the maximal response (Emax) fell in the range of 25 to 100% and the EC50 is less than 10 µM.

In the case of `Cc1nsc2[nH]cc(C(=O)Nc3ccc(N4CC[C@@H](F)C4)cc3C(F)(F)F)c(=O)c12` [Compound 13], the maximal response (Emax) is 25 to 100% and the 50% effective concentration (EC50) was less than 10 µM.

For the molecule `Cc1nsc2[nH]cc(C(=O)Nc3cc4[nH]ccc4cc3C(C)(C)C)c(=O)c12` [Compound 14], the maximal effect (Emax) was 25 to 100% and the EC50 was less than 10 µM.

As for `Cc1nsc2[nH]cc(C(=O)Nc3cc(O)c(C4CCCC4)cc3C#N)c(=O)c12` [Compound 15], the Emax lay within 25 to 100% and the concentration giving a half-maximal response (EC50) was less than 10 µM.

With `Cc1cc(C2CCCC2)c(O)cc1NC(=O)c1c[nH]c2snc(C)c2c1=O` [Compound 16], the Emax was 25 to 100% and the concentration giving a half-maximal response (EC50) was less than 10 µM.
